{"source": "PubChem BioAssay (NCI)", "experiment_in_all_cases": "DTP human tumour cell line panel, 48 h", "key": {"HL-60(TB) leukemia": {"tested_on": "HL-60(TB) leukemia"}, "PC-3 prostate": {"tested_on": "PC-3 prostate"}, "SK-MEL-2 melanoma": {"tested_on": "SK-MEL-2 melanoma"}, "UACC-257 melanoma": {"tested_on": "UACC-257 melanoma"}, "U251 CNS": {"tested_on": "U251 CNS"}, "RXF 393 renal": {"tested_on": "RXF 393 renal"}, "EKVX NSCLC": {"tested_on": "EKVX NSCLC"}, "HCT-15 colon": {"tested_on": "HCT-15 colon"}, "TK-10 renal": {"tested_on": "TK-10 renal"}, "UO-31 renal": {"tested_on": "UO-31 renal"}, "HS 578T breast": {"tested_on": "HS 578T breast"}, "SN12C renal": {"tested_on": "SN12C renal"}, "LOX IMVI melanoma": {"tested_on": "LOX IMVI melanoma"}, "IGROV1 ovarian": {"tested_on": "IGROV1 ovarian"}, "A498 renal": {"tested_on": "A498 renal"}, "COLO 205 colon": {"tested_on": "COLO 205 colon"}, "HCC-2998 colon": {"tested_on": "HCC-2998 colon"}, "NCI-H23 lung": {"tested_on": "NCI-H23 lung"}, "OVCAR-3 ovarian": {"tested_on": "OVCAR-3 ovarian"}, "M14 melanoma": {"tested_on": "M14 melanoma"}, "NCI/ADR-RES ovarian": {"tested_on": "NCI/ADR-RES ovarian"}, "MDA-MB-435": {"tested_on": "MDA-MB-435"}, "CAKI-1 renal": {"tested_on": "CAKI-1 renal"}, "SK-MEL-28 melanoma": {"tested_on": "SK-MEL-28 melanoma"}, "HT29 colon": {"tested_on": "HT29 colon"}, "RPMI-8226 leukemia": {"tested_on": "RPMI-8226 leukemia"}, "786-0 renal": {"tested_on": "786-0 renal"}, "SNB-19 CNS": {"tested_on": "SNB-19 CNS"}, "DU-145 prostate": {"tested_on": "DU-145 prostate"}, "HCT-116 colon": {"tested_on": "HCT-116 colon"}}, "note": "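Values below derive from 48-hour exposures of cells grown in 96-well plates, with endpoints linearly interpolated between the two concentrations bracketing the appropriate inhibition level. GI50: concentration for 50% inhibition of growth. The concentration for full growth arrest is given as TGI.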"}
{"compound": "Cc1ccc(-c2nc(Nc3ccccc3C(=O)O)c3ccccc3n2)cc1", "values": [{"measurement": "GI50", "setting": "HL-60(TB) leukemia", "result": 12.9, "unit": "µM"}, {"measurement": "TGI", "setting": "HL-60(TB) leukemia", "result": 75.4, "unit": "µM"}, {"measurement": "GI50", "setting": "PC-3 prostate", "result": 12.7, "unit": "µM"}, {"measurement": "TGI", "setting": "PC-3 prostate", "result": "> 100", "unit": "µM"}, {"measurement": "GI50", "setting": "SK-MEL-2 melanoma", "result": 3.65, "unit": "µM"}, {"measurement": "TGI", "setting": "SK-MEL-2 melanoma", "result": 15.6, "unit": "µM"}, {"measurement": "GI50", "setting": "UACC-257 melanoma", "result": 15.3, "unit": "µM"}, {"measurement": "TGI", "setting": "UACC-257 melanoma", "result": 90.3, "unit": "µM"}, {"measurement": "GI50", "setting": "U251 CNS", "result": 5.58, "unit": "µM"}, {"measurement": "TGI", "setting": "U251 CNS", "result": 35, "unit": "µM"}, {"measurement": "GI50", "setting": "RXF 393 renal", "result": 13.1, "unit": "µM"}, {"measurement": "TGI", "setting": "RXF 393 renal", "result": 65.9, "unit": "µM"}, {"measurement": "GI50", "setting": "EKVX NSCLC", "result": 8.89, "unit": "µM"}, {"measurement": "TGI", "setting": "EKVX NSCLC", "result": 56.2, "unit": "µM"}, {"measurement": "GI50", "setting": "HCT-15 colon", "result": 5.83, "unit": "µM"}, {"measurement": "TGI", "setting": "HCT-15 colon", "result": 28.7, "unit": "µM"}, {"measurement": "GI50", "setting": "TK-10 renal", "result": 29.2, "unit": "µM"}, {"measurement": "TGI", "setting": "TK-10 renal", "result": "> 100", "unit": "µM"}, {"measurement": "GI50", "setting": "UO-31 renal", "result": 7.33, "unit": "µM"}, {"measurement": "TGI", "setting": "UO-31 renal", "result": 77.9, "unit": "µM"}, {"measurement": "GI50", "setting": "HS 578T breast", "result": 10.2, "unit": "µM"}, {"measurement": "TGI", "setting": "HS 578T breast", "result": 67, "unit": "µM"}, {"measurement": "GI50", "setting": "SN12C renal", "result": 11, "unit": "µM"}, {"measurement": "TGI", "setting": "SN12C renal", "result": 60.4, "unit": "µM"}, {"measurement": "GI50", "setting": "LOX IMVI melanoma", "result": 10.2, "unit": "µM"}, {"measurement": "TGI", "setting": "LOX IMVI melanoma", "result": 31.6, "unit": "µM"}, {"measurement": "GI50", "setting": "IGROV1 ovarian", "result": 19.1, "unit": "µM"}, {"measurement": "TGI", "setting": "IGROV1 ovarian", "result": 87.1, "unit": "µM"}, {"measurement": "GI50", "setting": "A498 renal", "result": 19.9, "unit": "µM"}, {"measurement": "TGI", "setting": "A498 renal", "result": 58.1, "unit": "µM"}, {"measurement": "GI50", "setting": "COLO 205 colon", "result": 17.8, "unit": "µM"}, {"measurement": "TGI", "setting": "COLO 205 colon", "result": 41, "unit": "µM"}, {"measurement": "GI50", "setting": "HCC-2998 colon", "result": 12.4, "unit": "µM"}, {"measurement": "TGI", "setting": "HCC-2998 colon", "result": 36, "unit": "µM"}, {"measurement": "GI50", "setting": "NCI-H23 lung", "result": 15.7, "unit": "µM"}, {"measurement": "TGI", "setting": "NCI-H23 lung", "result": 44.4, "unit": "µM"}, {"measurement": "GI50", "setting": "OVCAR-3 ovarian", "result": 13.1, "unit": "µM"}, {"measurement": "TGI", "setting": "OVCAR-3 ovarian", "result": 51.3, "unit": "µM"}, {"measurement": "GI50", "setting": "M14 melanoma", "result": 15.5, "unit": "µM"}, {"measurement": "TGI", "setting": "M14 melanoma", "result": 77.4, "unit": "µM"}, {"measurement": "GI50", "setting": "NCI/ADR-RES ovarian", "result": 16.8, "unit": "µM"}, {"measurement": "TGI", "setting": "NCI/ADR-RES ovarian", "result": 98.5, "unit": "µM"}, {"measurement": "GI50", "setting": "MDA-MB-435", "result": 13.9, "unit": "µM"}, {"measurement": "TGI", "setting": "MDA-MB-435", "result": 87.2, "unit": "µM"}, {"measurement": "GI50", "setting": "CAKI-1 renal", "result": 13.8, "unit": "µM"}, {"measurement": "TGI", "setting": "CAKI-1 renal", "result": "> 100", "unit": "µM"}, {"measurement": "GI50", "setting": "SK-MEL-28 melanoma", "result": 15.9, "unit": "µM"}, {"measurement": "TGI", "setting": "SK-MEL-28 melanoma", "result": 97.4, "unit": "µM"}, {"measurement": "GI50", "setting": "HT29 colon", "result": 17.9, "unit": "µM"}, {"measurement": "TGI", "setting": "HT29 colon", "result": "> 100", "unit": "µM"}, {"measurement": "GI50", "setting": "RPMI-8226 leukemia", "result": 4.44, "unit": "µM"}, {"measurement": "TGI", "setting": "RPMI-8226 leukemia", "result": "> 100", "unit": "µM"}, {"measurement": "GI50", "setting": "786-0 renal", "result": 17.1, "unit": "µM"}, {"measurement": "TGI", "setting": "786-0 renal", "result": "> 100", "unit": "µM"}, {"measurement": "GI50", "setting": "SNB-19 CNS", "result": 8.09, "unit": "µM"}, {"measurement": "TGI", "setting": "SNB-19 CNS", "result": 81.7, "unit": "µM"}, {"measurement": "GI50", "setting": "DU-145 prostate", "result": 17.7, "unit": "µM"}, {"measurement": "TGI", "setting": "DU-145 prostate", "result": "> 100", "unit": "µM"}, {"measurement": "GI50", "setting": "HCT-116 colon", "result": 10.1, "unit": "µM"}]}
